The assay has as its target T1, IP receptor (Homo sapiens, UniProt P43119).
T1 construct: expressed in transfected cells; host or cells: CHO cells stably expressing the IP receptor (CHO-IP)
Description: cAMP accumulation in CHO cells stably expressing the IP receptor (CHO-IP), Perkin Elmer AlphaScreen assay. The class given is cell-based. As to conditions: agonist activity, 1 hour at room temperature. The method, then:
Activity of compounds at the IP receptor (IP receptor) is assessed by measuring cAMP accumulation in CHO cells stably expressing the IP receptor (CHO-IP) using the Perkin Elmer AlphaScreen assay. This technology measures the endogenous production of cAMP, in a non-radioactive luminescence proximity homogenous assay. A biological reaction occurs between streptavidin coated donor beads, biotinylated cAMP and anti-cAMP acceptor beads, bringing the donor and acceptor beads close enough together so that upon excitation a fluorescence signal is produced. On production of endogenous cAMP, competition between the biotinylated cAMP and cellular-derived cAMP causes a reduction in the fluorescent signal. The reduction in signal is proportional to the amount of cAMP being produced, thus it is possible to quantify the amount of cAMP being produced on stimulation with agonist.
Test and reference compounds are prepared at 100× [final] in 100% DMSO, and diluted 1:3 using a Biomek Fx (Beckman Coulter). This is followed by an intermediate dilution to give 5× [final] in assay buffer (HBSS containing 5 mM HEPES, 0.1% (w/v) BSA). 5 μL of 5× [final] test compounds, reference compounds and buffer/DMSO control are then transferred to a 384-well white OptiPlate, containing 20 μL CHO-IP cell suspension (15,000 cells/well, prepared from frozen), and plate is incubated at room temperature for 1 hour. A cAMP standard curve is constructed for each experiment (concentration range of 10000 nM to 0.001 nM, in assay buffer) and 25 μL of each concentration added to the last two columns of the assay plate. The incubation is terminated by the addition of lysis buffer (dH2O; 0.3% (v v^−1) Tween-20) containing 20 units mL^−1 streptavidin coated donor beads and biotinylated cAMP (pre-incubated for 30 minutes) and 20 units mL^−1 anti-cAMP acceptor beads, which are added to the lysis buffer just before addition to the assay plate. The assay plate is then incubated at room temperature in the dark, for 60 minutes with gentle shaking, and read on the Envision plate reader (Perkin Elmer).
The raw data of the reference compounds, test compounds and controls are converted into cAMP concentrations, using the cAMP standard curve, in Graph Pad Prism (Graph Pad Software Inc). EC50 as well as maximal values of the agonist curves are determined using a 4-parameter logistic equation. The % maximum response values of all test compounds are determined using the top of the treprostinil concentration-response curve.

Our source for the EC50 values is patent publication US9115129B2, “Substituted pyrido[2,3-B]pyrazines as IP receptor agonists” (Novartis AG, priority 2012, dated 2015).

T1 sequence (P43119 whole entry): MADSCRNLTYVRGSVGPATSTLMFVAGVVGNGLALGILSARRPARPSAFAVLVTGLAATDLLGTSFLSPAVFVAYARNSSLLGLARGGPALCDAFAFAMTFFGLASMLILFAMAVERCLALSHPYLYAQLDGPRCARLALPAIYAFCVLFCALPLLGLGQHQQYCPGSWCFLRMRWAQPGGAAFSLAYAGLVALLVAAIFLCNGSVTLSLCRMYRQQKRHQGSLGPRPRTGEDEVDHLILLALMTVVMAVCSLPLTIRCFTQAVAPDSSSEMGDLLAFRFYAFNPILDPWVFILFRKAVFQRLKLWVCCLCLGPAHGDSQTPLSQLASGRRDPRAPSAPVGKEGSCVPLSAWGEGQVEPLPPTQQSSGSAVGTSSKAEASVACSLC

The molecule `COC1CCN(CCCCCCC(=O)O)c2nc(-c3ccc(C)cc3)c(-c3ccc(C)cc3)nc21` (racemic) [Example 3.1, rac-7-(8-Methoxy-2,3-di-p-tolyl-7,8-dihydropyrido[2,3-b]pyrazin-5(6H)-yl)heptanoic acid] came in with an EC50 of 0.8 nM. Next, `COC1(C)CCN(CCCCCCC(=O)O)c2nc(-c3ccc(C)cc3)c(-c3ccc(C)cc3)nc21` (racemic) [Example 15, rac-7-(8-Methoxy-8-methyl-2,3-di-p-tolyl-7,8-dihydropyrido[2,3-b]pyrazin-5(6H)-yl)heptanoic acid]: 0.3 nM; `Cc1ccc(-c2nc3c(nc2-c2ccc(C)cc2)N(CCCCC(O)CC(=O)O)CCC3)cc1` (racemic) [Example 17, rac-7-(2,3-Di-p-tolyl-7,8-dihydropyrido[2,3-b]pyrazin-5(6H)-yl)-3-hydroxyheptanoic acid]: 1.8 nM; `Cc1ccc(-c2nc3c(nc2-c2ccc(C)cc2)N(CCCCCCC(=O)O)C(=O)C(C(C)(C)O)C3)cc1` (single isomer, unassigned) [1.1(i), (R)-7-(7-(2-hydroxypropan-2-yl)-6-oxo-2,3-di-p-tolyl-7,8-dihydropyrido[2,3-b]pyrazin-5(6H)-yl)heptanoic acid or (S)-7-(7-(2-hydroxypropan-2-yl)-6-oxo-2,3-di-p-tolyl-7,8-dihydropyrido[2,3-b]pyrazin-5(6H)-yl)heptanoic acid]: 0.3 nM. Consider `Cc1ccc(-c2nc3c(nc2-c2ccc(C)cc2)N(CCCCCCC(=O)O)C(=O)C(C(C)(C)O)C3)cc1` (single isomer, unassigned) [1.1(ii), (R)-7-(7-(2-hydroxypropan-2-yl)-6-oxo-2,3-di-p-tolyl-7,8-dihydropyrido[2,3-b]pyrazin-5(6H)-yl)heptanoic acid or (S)-7-(7-(2-hydroxypropan-2-yl)-6-oxo-2,3-di-p-tolyl-7,8-dihydropyrido[2,3-b]pyrazin-5(6H)-yl)heptanoic acid], for which the half-maximal effective concentration (EC50) came out at 0.6 nM. This EC50 lies about 2-fold higher than the previous one. Next, `CCC1CCc2nc(-c3ccc(C)cc3)c(-c3ccc(C)cc3)nc2N1CCCCCCC(=O)O` (single isomer, unassigned) [2.3(i), (R)-7-(6-Ethyl-2,3-di-p-tolyl-7,8-dihydropyrido[2,3-b]pyrazin-5(6H)-yl)heptanoic acid or (S)-7-(6-Ethyl-2,3-di-p-tolyl-7,8-dihydropyrido[2,3-b]pyrazin-5(6H)-yl)heptanoic acid]: 4.8 nM; `CCC1CCc2nc(-c3ccc(C)cc3)c(-c3ccc(C)cc3)nc2N1CCCCCCC(=O)O` (single isomer, unassigned) [2.3(ii), (R)-7-(6-Ethyl-2,3-di-p-tolyl-7,8-dihydropyrido[2,3-b]pyrazin-5(6H)-yl)heptanoic acid or (S)-7-(6-Ethyl-2,3-di-p-tolyl-7,8-dihydropyrido[2,3-b]pyrazin-5(6H)-yl)heptanoic acid]: 0.3 nM; `Cc1ccc(-c2nc3c(nc2-c2ccc(C)cc2)N(CCCCCCC(=O)O)CC(C(C)(C)O)C3)cc1` (single isomer, unassigned) [9.2(i), (R)-7-(7-(2-hydroxypropan-2-yl)-2,3-di-p-tolyl-7,8-dihydropyrido[2,3-b]pyrazin-5(6H)-yl)heptanoic acid or (S)-7-(7-(2-hydroxypropan-2-yl)-2,3-di-p-tolyl-7,8-dihydropyrido[2,3-b]pyrazin-5(6H)-yl)heptanoic acid]: 12.7 nM. To `Cc1ccc(-c2nc3c(nc2-c2ccc(C)cc2)N(CCCCCCC(=O)O)C(=O)C(O)C3)cc1` (single isomer, unassigned) [11(i), (R)-7-(7-hydroxy-6-oxo-2,3-di-p-tolyl-7,8-dihydropyrido[2,3-b]pyrazin-5(6H)-yl) heptanoic acid or (S)-7-(7-hydroxy-6-oxo-2,3-di-p-tolyl-7,8-dihydropyrido[2,3-b]pyrazin-5(6H)-yl) heptanoic acid] belongs 0.3 nM. Take `Cc1ccc(-c2nc3c(nc2-c2ccc(C)cc2)N(CCCCCCC(=O)O)C(=O)C(O)C3)cc1` (single isomer, unassigned) [11(ii), (R)-7-(7-hydroxy-6-oxo-2,3-di-p-tolyl-7,8-dihydropyrido[2,3-b]pyrazin-5(6H)-yl) heptanoic acid or (S)-7-(7-hydroxy-6-oxo-2,3-di-p-tolyl-7,8-dihydropyrido[2,3-b]pyrazin-5(6H)-yl) heptanoic acid]: the EC50 came out at 0.5 nM.

`Cc1ccc(-c2nc3c(nc2-c2ccc(C)cc2)N(CCCCCCC(=O)O)C(=O)C(C(C)(C)O)C3)cc1` (single isomer, unassigned) [Example 1.1, rac-7-(7-(2-Hydroxypropan-2-yl)-6-oxo-2,3-di-p-tolyl-7,8-dihydropyrido[2,3-b]pyrazin-5(6H)-yl)heptanoic acid] showed an EC50 of 0.3 nM. This EC50 lies about 1.7-fold lower than the previous one.

As for `CO[C@@H]1CCN(CCCCCCC(=O)O)c2nc(-c3ccc(C)cc3)c(-c3ccc(C)cc3)nc21` (single isomer, unassigned) [Example 3.2, (R)-7-(8-methoxy-2,3-di-p-tolyl-7,8-dihydropyrido[2,3-b]pyrazin-5(6H)-yl)heptanoic acid or (S)-7-(8-methoxy-2,3-di-p-tolyl-7,8-dihydropyrido[2,3-b]pyrazin-5(6H)-yl)heptanoic acid], the half-maximal effective concentration (EC50) was 13.6 nM. Against the preceding molecule, the EC50 is about 45-fold higher. To `CO[C@@H]1CCN(CCCCCCC(=O)O)c2nc(-c3ccc(C)cc3)c(-c3ccc(C)cc3)nc21` (single isomer, unassigned) [Example 3.3, (R)-7-(8-methoxy-2,3-di-p-tolyl-7,8-dihydropyrido[2,3-b]pyrazin-5(6H)-yl)heptanoic acid or (S)-7-(8-methoxy-2,3-di-p-tolyl-7,8-dihydropyrido[2,3-b]pyrazin-5(6H)-yl)heptanoic acid] belongs 2.3 nM; to `Cc1ccc(-c2nc3c(nc2-c2ccc(C)cc2)N(CCCCCCC(=O)NS(C)(=O)=O)CCC3O)cc1` (single isomer, unassigned) [Example 13.1, (R or S)-7-(8-Hydroxy-2,3-di-p-tolyl-7,8-dihydropyrido[3,2-b]pyrazin-5(6H)-yl)-N-(methylsulfonyl)heptanamide], 28.6 nM. Next, `Cc1ccc(-c2nc3c(nc2-c2ccc(C)cc2)N(CCCCCCC(=O)NS(=O)(=O)Cc2ccccc2)CCC3O)cc1` (single isomer, unassigned) [Example 13.2, (R)—N-(benzylsulfonyl)-7-(8-hydroxy-2,3-di-p-tolyl-7,8-dihydropyrido[3,2-b]pyrazin-5(6H)-yl)heptanamide or (S)—N-(benzylsulfonyl)-7-(8-hydroxy-2,3-di-p-tolyl-7,8-dihydropyrido[3,2-b]pyrazin-5(6H)-yl)heptanamide]: 510 nM; `Cc1ccc(-c2nc3c(nc2-c2ccc(C)cc2)N(CCCCCCC(=O)NS(=O)(=O)Cc2ccccc2)CCC3O)cc1` (single isomer, unassigned) [Example 13.3, (R)—N-(benzylsulfonyl)-7-(8-hydroxy-2,3-di-p-tolyl-7,8-dihydropyrido[3,2-b]pyrazin-5(6H)-yl)heptanamide or (S)—N-(benzylsulfonyl)-7-(8-hydroxy-2,3-di-p-tolyl-7,8-dihydropyrido[3,2-b]pyrazin-5(6H)-yl)heptanamide]: 66.2 nM; `COC1(C)CCN(CCCCCCC(=O)O)c2nc(-c3ccc(C)cc3)c(-c3ccc(C)cc3)nc21` (single isomer, unassigned) [Example 15a, (R)-7-(8-Methoxy-8-methyl-2,3-di-p-tolyl-7,8-dihydropyrido[2,3-b]pyrazin-5(6H)-yl)heptanoic acid or (S)-7-(8-Methoxy-8-methyl-2,3-di-p-tolyl-7,8-dihydropyrido[2,3-b]pyrazin-5(6H)-yl)heptanoic acid]: 1.1 nM. The molecule `COC1(C)CCN(CCCCCCC(=O)O)c2nc(-c3ccc(C)cc3)c(-c3ccc(C)cc3)nc21` (single isomer, unassigned) [Example 15b, (R)-7-(8-Methoxy-8-methyl-2,3-di-p-tolyl-7,8-dihydropyrido[2,3-b]pyrazin-5(6H)-yl)heptanoic acid or (S)-7-(8-Methoxy-8-methyl-2,3-di-p-tolyl-7,8-dihydropyrido[2,3-b]pyrazin-5(6H)-yl)heptanoic acid] registered an EC50 of 3.6 nM. To `Cc1ccc(-c2nc3c(nc2-c2ccc(C)cc2)N(CCCC[C@@H](O)CC(=O)O)CCC3)cc1` (single isomer, unassigned) [Example 17a, (R)-7-(2,3-Di-p-tolyl-7,8-dihydropyrido[2,3-b]pyrazin-5(6H)-yl)-3-hydroxyheptanoic acid or (S)-7-(2,3-Di-p-tolyl-7,8-dihydropyrido[2,3-b]pyrazin-5(6H)-yl)-3-hydroxyheptanoic acid] belongs 3.6 nM.
